The results in this text go back to patent US7618956B2, “Reduction of hair growth” (The Gillette Company, priority 2005, dated 2009).

SMILES strings stand for the structures.

The test system of one test is hamster hair mass. The test is described as follows: Hamster hair mass assay. Format: in vivo. As to conditions: vehicle 90% ethanol and 10% propylene glycol. On the procedure: Hamster Hair Mass Assay: Hamster hair mass was determined using a method similar to that described in previous patent (US2004/0198821).
In test [1] the test system is Human hair follicles in growth phase (anagen). As to the kind of experiment: Human hair follicle growth assay. To be noted: for Hair follicle length increase (mm) Treated: day 0 to day 7; for % Reduction of human hair follicle growth / Growth of follicle (mm) Treated: Table III. Format: cell-based. On the procedure: Human Hair Follicle Growth Assay:
Human hair follicles in growth phase (anagen) were isolated from face-lift tissue (obtained from plastic surgeons) under dissecting scope using a scalpel and watchmakers forceps. The skin was sliced into thin strips exposing 2-3 rows of follicles that could readily be dissected. Follicles were placed into 0.5 ml William's E medium (Life Technologies, Gaithersburg, Md.) supplemented with 2 mM L-glutamine, 10 μg/ml insulin, 10 ng/ml hydrocortisone, 100 units of penicillin, 0.1 mg/ml streptomycin and 0.25 μg/ml amphotericin B. The follicles were incubated in 24-well plates (1 follicle/well) at 37° C. in an atmosphere of 5% CO2 and 95% air. Compounds are dissolved into dimethyl sulfoxide as 100-fold stock solution. The control hair follicles were treated with dimethyl sulfoxide without prostaglandin. The follicles were photographed in the 24-well plates under the dissecting scope at a power of 10×. Typically, image recordings were made on day 0 (day follicles were placed in culture), and again on day 7. The length of hair follicle was assessed using an image analysis software system. The growth of hair fiber was calculated by the subtracting the follicle length on day 0 from that determined on day 7.

The mark [2] stands for this setting: Homo sapiens, Table II, dose 100 μM, vs control.

One may read the inhibition as the drop in the measured response relative to a control, in per cent. High values mean strong suppression, low ones little suppression. Turning to `C[C@H](CCC(=O)O)[C@H]1CC[C@H]2[C@@H]3[C@H](O)C[C@@H]4C[C@H](O)CC[C@]4(C)[C@H]3CC[C@]12C` [Chenodeoxycholic acid], in the test on hamster hair mass (dose 5% (w/v)), the “% Inhibition of hamster hair mass” value turned out to be 76.4 ± 2.6% and the “Hair mass (mg) Treated” value worked out at 0.54 ± 0.08 mg. Besides, testing at 100 µM in test [1] (setting [2]) gave an inhibition of 95.3 ± 5.6%. For the same molecule, the “Hair follicle length increase (mm) Treated” value (“Hair follicle length increase” below) in test [1] (Table II, dose 100 μM) is given as 0.05 ± 0.06 mm. In addition, in test [1] (dose 5 μM), the “% Reduction of human hair follicle growth” value (“% Reduction” for short) is on record as 1.3 ± 18.7% and the “Growth of follicle (mm) Treated” value is on record as 1.53 ± 0.29 mm. Moreover, in test [1] (dose 25 μM), the “% Reduction” value is listed as 49.0 ± 17.4% and the “Growth of follicle (mm) Treated” value was found to be 0.79 ± 0.27 mm. Further, in test [1] (dose 50 μM), the “% Reduction” value is listed as 91.6 ± 6.5% and the “Growth of follicle (mm) Treated” value is reported as 0.13 ± 0.10 mm.
`C[C@H](CCC(=O)O)[C@H]1CC[C@H]2[C@@H]3CC[C@@H]4C[C@H](O)CC[C@]4(C)[C@H]3C[C@H](O)[C@]12C` [Deoxycholic acid]: in the test on hamster hair mass (dose 5% (w/v)), the “% Inhibition of hamster hair mass” value is reported as 63.6 ± 6.0% and the “Hair mass (mg) Treated” value worked out at 0.92 ± 0.14 mg. Further, in test [1] (setting [2]), the inhibition at 100 µM worked out at 94.3 ± 4.7%. Also, in test [1] (Table II, dose 100 μM), the “Hair follicle length increase” value was 0.06 ± 0.05 mm. For the same molecule, in test [1] (dose 10 μM), the “% Reduction” value is 31.8 ± 18.1% and the “Growth of follicle (mm) Treated” value was determined as 1.20 ± 0.49 mm. In addition, in test [1] (dose 50 μM), the “% Reduction” value is 69.3 ± 13.6% and the “Growth of follicle (mm) Treated” value was 0.54 ± 0.34 mm. In test [1] (dose 100 μM), the “% Reduction” value came out at 69.3 ± 13.6% and the “Growth of follicle (mm) Treated” value is listed as 0.54 ± 0.34 mm.
For the molecule `CC(C)=CCCC(C)=CCCC(C)=CCO` [Farnesol], in test [1] (setting [2]), the inhibition at 100 µM came to 95.4 ± 8%. In test [1] (Table II, dose 100 μM), the “Hair follicle length increase” value is reported as 0.04 ± 0.07 mm.
Turning to `COC(=O)C=C(C)CCC=C(C)CCC1OC1(C)C` (centres unmarked) [Juvenile hormone III, 7-Methyl-9-(3,3-dimethyloxivanyl)-3-methyl-2,6-nonadienoic acid methyl ester], the “Hair follicle length increase” value in test [1] (Table II, dose 100 μM) turned out to be 0.21 ± 0.15 mm. Besides, the “% Inhibition of human hair follicle growth” value in test [1] (Table II, dose 100 μM, vs control) worked out at 75.9 ± 17.2%.
Take `C[C@H](CCC(=O)O)[C@H]1CC[C@H]2[C@@H]3CC[C@@H]4C[C@H](O)CC[C@]4(C)[C@H]3CC[C@]12C` [Lithocholic acid]: in the test with hamster hair mass (dose 4% (w/v)), the “% Inhibition of hamster hair mass” value came out at 46.4 ± 6.0% and the “Hair mass (mg) Treated” value came to 1.01 ± 0.12 mg. This molecule displayed an inhibition at 50 µM in test [1] (Homo sapiens, Table II, dose 50 μM, vs control) of 98.1 ± 1.9%. Also, the “Hair follicle length increase” value in test [1] (Table II, dose 50 μM) is reported as 0.02 ± 0.02 mm. In addition, in test [1] (dose 2 μM), the “% Reduction” value is listed as 33.9 ± 11.3% and the “Growth of follicle (mm) Treated” value worked out at 0.82 ± 0.14 mm. In test [1] (dose 10 μM), the “% Reduction” value came out at 64.5 ± 12.9% and the “Growth of follicle (mm) Treated” value came out at 0.44 ± 0.16 mm. In test [1] (dose 20 μM), the “% Reduction” value is reported as 97.6 ± 4.8% and the “Growth of follicle (mm) Treated” value is 0.03 ± 0.06 mm.
For `C[C@H](CCC(=O)O)[C@H]1CC[C@H]2[C@@H]3[C@@H](O)C[C@@H]4C[C@H](O)CC[C@]4(C)[C@H]3CC[C@]12C` [Ursodeoxycholic acid], in the test on hamster hair mass (dose 5% (w/v)), the “% Inhibition of hamster hair mass” value stood at 56.8 ± 3.8% and the “Hair mass (mg) Treated” value is given as 1.02 ± 0.16 mg. In addition, in test [1] (Homo sapiens, Table II, dose 200 μM, vs control), the inhibition at 200 µM worked out at 81.3 ± 10.3%. Also, the “Hair follicle length increase” value in test [1] (Table II, dose 200 μM) was found to be 0.20 ± 0.11 mm. In test [1] (dose 50 μM), the “% Reduction” value worked out at 36.3 ± 13.6% and the “Growth of follicle (mm) Treated” value came to 1.12 ± 0.24 mm. Besides, in test [1] (dose 100 μM), the “% Reduction” value amounted to 51.1 ± 11.4% and the “Growth of follicle (mm) Treated” value was 0.86 ± 0.20 mm. Moreover, in test [1] (dose 150 μM), the “% Reduction” value worked out at 65.3 ± 11.4% and the “Growth of follicle (mm) Treated” value was found to be 0.61 ± 0.20 mm.
